# Results reported in patent publication US10227331B2 (priority 2015, dated 2019).
# Legend:
# IMP-1 = IMP-1 (Serratia marcescens, UniProt P52699); test: biochemical; type: biochemical; settings: CCF2-FA substrate, 2 hours at 25° C; read-out: IMP-1 IC50
# How it was run: (§1)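 Class B activity is measured in the presence of compound by fluorescence with CCF2-FA after a 2-hour incubation at 25° C. IC50 is taken from a 4-parameter fit of semi-logarithmic dose-response data.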
# NDM-1 = NDM-1 (Klebsiella pneumoniae, UniProt C7C422); test: biochemical; type: biochemical; settings: CCF2-FA substrate, 2 hours at 25° C; read-out: NDM-1 IC50
# NDM-1, sequence (C7C422 whole entry, looked up, species assumed): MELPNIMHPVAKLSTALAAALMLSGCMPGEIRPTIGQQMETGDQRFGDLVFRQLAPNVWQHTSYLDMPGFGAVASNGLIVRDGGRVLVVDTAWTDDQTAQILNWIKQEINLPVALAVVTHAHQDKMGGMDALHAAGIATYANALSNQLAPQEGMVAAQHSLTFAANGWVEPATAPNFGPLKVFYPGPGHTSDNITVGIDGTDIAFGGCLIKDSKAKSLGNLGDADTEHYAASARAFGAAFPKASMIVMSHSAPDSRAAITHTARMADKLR
# How it was run: as §1
# VIM-1 = VIM-1 (Pseudomonas aeruginosa (strain ATCC 15692 / DSM 22644 / CIP 104116 / JCM 14847 / LMG 12228 / 1C / PRS 101 / PAO1), UniProt A0A0F7KYQ8); test: biochemical; settings: CCF2-FA substrate, 2 hours at 25° C
# How it was run: as §1
# [1] = system: Escherichia coli expressing NDM-1 (CLB30005, CLB30016); type: cell-based; settings: with imipenem 1 μg/ml, 95% inhibition of bacterial growth; for Escherichia coli MITC95: NDM-1 (CLB30016)
# How it was run: (§2)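 Clinical strains grown overnight on blood agar, then diluted 1:100 in 1.1× CAMHB and exposed to test compound with imipenem at 1 μg/ml. Incubation was 22–24 h at 35° C; growth was read by absorbance to find the compound concentration restoring imipenem susceptibility.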
# [2] = system: Klebsiella pneumoniae expressing VIM-1 (IHMA599644); type: cell-based; settings: with imipenem 1 μg/ml, 95% inhibition of bacterial growth; for Klebsiella pneumoniae MITC95: VIM-1 (IHMA599644)
# How it was run: as §2
# [3] = system: Serratia marcescens expressing IMP-1 (CL5741); type: cell-based; settings: with imipenem 1 μg/ml, 95% inhibition of bacterial growth; for Serratia marcescens MITC95: IMP-1 (CL5741)
# How it was run: as §2
# [4] = system: P. aeruginosa expressing IMP-1, efflux+ (MB9798); type: cell-based, Pseudomonas aeruginosa; settings: for P. aeruginosa expressing IMP-1, efflux+ (MB9798) MITC95: imipenem at 2 μg/mL, in the presence of a class A, C, D serine β-lactamase inhibitor closely related to relebactam; for Efflux ratio: ratio MITC95 PA_9798/MITC95 PA_9799
# Description: (§3) The strain background is Pseudomonas aeruginosa PAO1.
# [5] = system: P. aeruginosa expressing IMP-1, efflux− (MB9799); test: Efflux: concentration of MBL inhibitor which restores susceptibility to imipenem; type: cell-based, Pseudomonas aeruginosa; settings: imipenem at 2 μg/mL, in the presence of a class A, C, D serine β-lactamase inhibitor closely related to relebactam
# Description: as §3
# IMP-1, sequence (P52699 whole entry, looked up, species assumed): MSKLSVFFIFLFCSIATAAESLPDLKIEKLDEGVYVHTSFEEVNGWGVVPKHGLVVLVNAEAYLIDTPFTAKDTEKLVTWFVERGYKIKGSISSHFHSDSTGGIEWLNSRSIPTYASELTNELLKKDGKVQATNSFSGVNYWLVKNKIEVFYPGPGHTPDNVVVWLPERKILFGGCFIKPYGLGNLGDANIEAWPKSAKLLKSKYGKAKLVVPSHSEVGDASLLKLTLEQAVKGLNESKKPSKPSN
SMILES,IC50 (IMP-1) [nM],IC50 (NDM-1) [nM],IC50 (VIM-1) [nM],Escherichia coli expressing NDM-1 (CLB30016) MITC95 [1] [µM],Klebsiella pneumoniae expressing VIM-1 (IHMA599644) MITC95 [2] [µM],Serratia marcescens expressing IMP-1 (CL5741) MITC95 [3] [µM],"P. aeruginosa expressing IMP-1, efflux+ (MB9798) MITC95 [4] [µM]",Efflux ratio [4],"P. aeruginosa expressing IMP-1, efflux− (MB9799) MITC95 [5] [µM]",Escherichia coli MITC95 [1] [µM],Klebsiella pneumoniae MITC95 [2] [µM],Serratia marcescens MITC95 [3] [µM]
"CS(=O)(=O)c1ccc(-c2ccc(NS(=O)(=O)C3CC3)cc2)c(-c2nn[nH]n2)c1S(N)(=O)=O [Example 241, 4′-(Cyclopropanesulfonamido)-4-(methylsulfonyl)-2-(2H-tetrazol-5-yl)-[1,1′-biphenyl]-3-sulfonamide]",0.0444,0.658,0.0868,6.25,12.5,3.125,12.5,8.00,1.563,–,–,–
"NS(=O)(=O)c1c(Sc2ccncc2)ccc(-c2ccc(C3CCNCC3)cc2)c1-c1nn[nH]n1 [Example 242, 4′-(Piperidin-4-yl)-4-(pyridin-4-ylthio)-2-(2H-tetrazol-5-yl)-[1,1′-biphenyl]-3-sulfonamide]",3.34,4.01,7.47,12.5,50,6.25,50,31.99,1.563,–,–,–
"NS(=O)(=O)c1c(SC2CNC2)ccc(-c2ccc(NS(=O)(=O)C3CC3)cc2)c1-c1nn[nH]n1 [Example 243, 4-(Azetidin-3-ylthio)-4′-(cyclopropanesulfonamido)-2-(2H-tetrazol-5-yl)-[1,1′-biphenyl]-3-sulfonamide]",11.3,5.88,9.86,3.125,12.5,3.125,100,127.99,0.7813,–,–,–
"NS(=O)(=O)c1c(S(=O)(=O)C2CNC2)ccc(-c2ccc(NS(=O)(=O)C3CC3)cc2)c1-c1nn[nH]n1 [Example 244, 4-(Azetidin-3-ylsulfonyl)-4′-(cyclopropanesulfonamido)-2-(2H-tetrazol-5-yl)-[1,1′-biphenyl]-3-sulfonamide]",0.144,0.156,0.112,3.125,6.25,3.125,6.25,4.00,1.563,–,–,–
"NS(=O)(=O)c1c(S(=O)(=O)C2CN(C(=O)NC3CC3)C2)ccc(-c2ccc(NS(=O)(=O)C3CC3)cc2)c1-c1nn[nH]n1 [Example 245, 3-((4′-(Cyclopropanesulfonamido)-3-sulfamoyl-2-(2H-tetrazol-5-yl)-[1,1′-biphenyl]-4-yl)sulfonyl)-N-cyclopropylazetidine-1-carboxamide]",0.126,0.386,0.218,–,–,–,50,8.00,6.25,25,50,25
"NS(=O)(=O)c1cccc(-c2ccc(S(=O)(=O)C3CNC3)c(S(N)(=O)=O)c2-c2nn[nH]n2)c1 [Example 247, 4-(Azetidin-3-ylsulfonyl)-2-(2H-tetrazol-5-yl)-[1,1′-biphenyl]-3,3′-disulfonamide]",3.24,2.01,1.83,–,–,–,25,15.99,1.563,1.563,3.125,1.563
